Data as given in patent US4367232A, “Piperidine derivatives” (Fordonal, S.A., priority 1976, dated 1983).

Legend:
Assay type in all cases: in vivo
[1] = system: apomorphineinduced gnawing behaviour; assay: Inhibition of apomorphine-induced gnawing behaviour in the rat; settings: oral, approximate ED50, read-out: Anti-apomorphine: approximate oral ED50 value for inhibition of apomorphineinduced gnawing behaviour
Text: (§1) Standard pharmaceutical tests have been run with mice and rats using compounds of this invention. The instant compounds have been compared with Clebopride hydrochloride, i.e., N-(1-benzylpiperid-4-yl)-2-methoxy-4-amino-5-chlorobenzamide hydrochloride, which is disclosed in co-pending U.S. patent application Ser. No. 558,908 filed Mar. 17, 1975, incorporated herein by reference.
^(b) Approximate oral ED50 value for inhibition of
apomorphineinduced gnawing behaviour in the rat.

[2] = system: food intake (spaghetti); assay: Anorexia: inhibition of food intake (spaghetti) in screening test in the mouse; settings: 10 mg kg^-1 p.os.
Description: as §1
^(c) Percentage inhibition of food intake (spaghetti) in screening
test at 10 mg kg^-1 p.os. in the mouse.

[3] = system: stomach emptying; assay: Stomach emptying in the rat; settings: 0.3, 1.0 or 3.0 mg kg^-1 i.p.
Text: as §1
^(d) Active at 0.3 (+++), 1.0 (++) or 3.0 (+) mg kg^-1 i.p. in
causing significant stomach emptying in the rat.

Row | Compound | ED50 [1] [mg/kg] | Anorexia: percentage inhibition of food intake (spaghetti) [2] [%] | Stomach emptying [3]
1 | COc1cc(N)c(Cl)cc1C(=O)NC1CCN(Cc2ccccc2)CC1.Cl [Clebopride hydrochloride, N-(1-benzylpiperid-4-yl)-2-methoxy-4-amino-5-chlorobenzamide hydrochloride, reference compound] | 2.5 | 84 | 
2 | COc1cc(N)c(Cl)cc1C(=O)N(C)C1CCN(C(C)c2ccccc2)CC1 (stereo not shown) [R3'=CH3; R7'=CH3, N-methyl-N-[1-(1-phenylethyl)piperid-4-yl]-2-methoxy-4-amino-5-chlorobenzamide] | > 300 | 0 | 0
3 | CCN(C(=O)c1cc(Cl)c(N)cc1OC)C1CCN(Cc2ccccc2)CC1.Cl [R3'=H; R7'=C2H5, N-ethyl-N-(1-benzylpiperid-4-yl)-2-methoxy-4-amino-5-chlorobenzamide hydrochloride] | ~300 | 0 | 
4 | COc1cc(N)c(Cl)cc1C(=O)N(C)C1CCN(Cc2ccccc2)CC1.Cl [R3'=H; R7'=CH3, N-methyl-N-(1-benzylpiperid-4-yl)-2-methoxy-4-amino-5-chlorobenzamide hydrochloride] | > 300 | 0 | 
5 | COc1cc(N)c(Cl)cc1C(=O)NC1CC(C)N(Cc2ccccc2)C(C)C1 (stereo not shown) [R5'=2-Me; R6'=6-Me; R7'=H, N-(1-benzyl-2,6-dimethylpiperid-4-yl)-2-methoxy-4-amino-5-chlorobenzamide] | ~100 | 89 | 
6 | COc1cc(N)c(Cl)cc1C(=O)NC1CCN(Cc2ccccc2)CC1C (stereo not shown) [R5'=3-Me; R7'=H, N-(1-benzyl-3-methylpiperid-4-yl)-2-methoxy-4-amino-5-chlorobenzamide] | 58 | 34 | 
